In patent publication US7332489B2, “Methods and compositions of novel triazine compounds” (Reddy US Therapeutics, Inc., priority 2003, dated 2008):
Like-named read-outs stand apart in the source and are kept apart here.

Columns and labels:
TNF-α induced IL-6 = assay: TNF-α-induced IL-6 production determined by IL-6 ELISA; assay type: cell-based; settings: for activity at 10 µM: Homo sapiens, 24 h
Method in brief: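 Human aortic endothelial cells grown to ≥90% confluence, then treated with compounds and stimuli in serum-free medium with 0.2% albumin. Secreted IL-6 in collected media measured by sandwich ELISA (2 ug/ml capture, 200 ng/ml biotinylated detection antibody, streptavidin-HRP), read at 450 nm.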

cells = assay: Cytotoxicity/Lactate Dehydrogenase assay; assay type: cell-based; settings: toxic or cause cell death; concentrations (uM) given
Experimental: An appropriate number of cells are plated in four 96-well plates, one plate for “day 0” and three plates for days 1-3. Cells are treated with at least one compound of the present invention in varying concentrations with and without the apoptosis inducer cisplatin (2 μM) (“+cis” or “-cis”). Unteated cells are also assayed with and without cisplatin. After transfection, the plates are incubated at 37° C. overnight.
An appropriate number of cells are plated in four 96-well plates, one plate for “day 0” and three plates for days 1-3. Cells are treated with at least one compound of the present invention in varying concentrations. The negative control cells have normal media conditions, a duplicate set of wells is treated with the composition in which the compound is provided, but there is no added compound and the positive control cells are treated with the apoptosis inducer cisplatin (2 μM). All of the cells are transfected with a vector having a promoter that is responsive to apoptosis conditions. When apoptosis occurs, the promoter is turned on and the lactic dehydrogenase gene is activated and the enzyme protein is made and active. Activity is easily detected with a color change. After transfection, the plates are incubated at 37° C. overnight.
About 8 mls of warmed alpha MEM LDH lysis buffer (2% Triton X100) and about 8 mls of culture media (1/2 dilution) are combined. Two 96-well v-bottom plates are prepared, one labeled “lysis” and one labeled “supernatant.” To lyse the cells, about 200 μl Alpha MEM lysis buffer (diluted 1/2) is added to one test plate from which the supernatant has been removed and added to the plate labeled supernatant. After mixing, about 200 μl of lysed cells are transferred to the lysis plate. Both the lysis and supernatant plates are centrifuged at about 1600 rpm for about 10 min. After centrifugation, about 100 μl of both the supernatant or lysate is transferred to corresponding 96-well flat-bottomed plates.
The assay for cytotoxicity uses the Cytotoxicity Detection Kit (LDH) from Roche Diagnostics Corp. (Indianapolis, Ind.). Using the directions provided, the dye solution is mixed and added each well of the lysate and supernatant plate and incubated for up to 20-25 min at 15-25° C. in the dark.

[1] = Table 5, second part, column 1, class = % of control IL6 production, read-out: Inhibition of TNF-induced IL6, production

SMILES: COc1ccc(Nc2nc(NC3CCCCCC3)nc(N(C)C3CCNCC3)n2)cc1Cl [Compound 146, N^2-(3-chloro-4-methoxy-phenyl)-N^4-cycloheptyl-N^6-methyl-N^6-piperidin-4-yl-1,3,5-triazine-2,4,6-triamine]
- melting point: 114 to 116 °C

SMILES: COc1ccc(Nc2nc(NC3CCCCCC3)nc(OCC3CCCN3)n2)cc1Cl (centres unmarked) [Compound E22, N^2-(3-chloro-4-methoxyphenyl)-N^4-cycloheptyl-6-(2-azolanylmethoxy)-1,3,5-triazine-2,4-diamine]
- melting point: 84 to 86 °C

SMILES: COc1ccc(Nc2nc(O)nc(NC3CCCCCC3)n2)cc1Cl [Compound 147, 4-(3-Chloro-4-methoxy-phenylamino)-6-cycloheptylamino-1,3,5-triazin-2-ol]
- melting point: > 310 °C

SMILES: COc1ccc(Nc2nc(Cl)nc(NCC3CCCCC3)n2)cc1F [Compound 125, 6-Chloro-N-cyclohexylmethyl-N′-(3-fluoro-4-methoxy-phenyl)-[1,3,5]triazine-2,4-diamine]
- melting point: 156 °C

SMILES: COc1ccc(Nc2nc(NCCN(C)C)nc(NC3CCCCCC3)n2)cc1F [Compound 93, N^2-cycloheptyl-N^4-[2-(dimethylamino)ethyl]-N^6-(3-fluoro-4-methoxyphenyl)-1,3,5-triazine-2,4,6-triamine]
- activity at 10 µM (TNF-α induced IL-6; Table 5, first part, class = % of control IL6 production, read-out: Inhibition of TNF-induced IL6 production): 0 to 25%
- activity at 10 µM (TNF-α induced IL-6; [1]): 0 to 25%
- Toxicity (cells): toxic

SMILES: COc1ccc(Nc2nc(NN3CCCCCC3)nc(N(C)C3CCNCC3)n2)cc1Cl
- melting point: 81 °C

SMILES: CCN1CCCC1CNc1nc(Nc2ccc(F)c(F)c2)nc(NC2CCCCCC2)n1 (centres unmarked) [Compound 8, N^2-cycloheptyl-N^4-(3,4-difluorophenyl)-N^6-[(1-ethyl-2-pyrrolidinyl)methyl]-1,3,5-triazine-2,4,6-triamine]
- Toxicity (cells): toxic

SMILES: CCN1CCCC1CNc1nc(NC2CCCCCC2)nc(N(C)c2ccc(OC(F)(F)F)cc2)n1 (centres unmarked) [Compound 47, N^2-cycloheptyl-N^4-[(1-ethyl-2-pyrrolidinyl)methyl]-N^6-methyl-N^6-[4-(trifluoromethoxy)phenyl]-1,3,5-triazine-2,4,6-triamine]
- Toxicity (cells): toxic

SMILES: CCN1CCCC1CNc1nc(Nc2ccc(Cl)cc2)nc(NC2CCCCCC2)n1 (centres unmarked) [Compound 12, N^2-(4-chlorophenyl)-N^4-cycloheptyl-N^6-[(1-ethyl-2-pyrrolidinyl)methyl]-1,3,5-triazine-2,4,6-triamine]
- Toxicity (cells): toxic

SMILES: CCN1CCCC1CNc1nc(Nc2ccc(OC)c(F)c2)nc(NC2CCCCCCC2)n1 (centres unmarked) [Compound 54, N^2-cyclooctyl-N^4-[(1-ethyl-2-pyrrolidinyl)methyl]-N^6-(3-fluoro-4-methoxyphenyl)-1,3,5-triazine-2,4,6-triamine]
- Toxicity (cells): toxic

SMILES: COc1ccc(Nc2nc(OCC3CCCCC3)nc(N(C)C3CCN(C)CC3)n2)cc1Cl [Compound 119, N-(3-Chloro-4-methoxy-phenyl)-6-cyclohexylmethoxy-N′-methyl-N′-(1-methyl-piperidin-4-yl)-[1,3,5]triazine-2,4-diamine]
- Toxicity (cells): toxic

SMILES: COc1ccc(Nc2nc(Nc3ccc(OC)c(Cl)c3)nc(NC3CCCCCC3)n2)cc1Cl [Compound 122, N,N′-Bis-(3-chloro-4-methoxy-phenyl)-N″-cycloheptyl-[1,3,5]triazine-2,4,6-triamine]
- melting point: 183 °C

SMILES: COc1ccc(Nc2nc(Cl)nc(Cl)n2)cc1F [Compound 124, (4,6-Dichloro-[1,3,5]triazin-2-yl)-(3-fluoro-4-methoxy-phenyl)-amine]
- melting point: 134 °C

SMILES: COc1ccc(Nc2nc(NC3CCCCCC3)nc(N3CCSCC3)n2)cc1Cl
- melting point: 78 to 80 °C

SMILES: COc1ccc(Nc2nc(Cl)nc(OCC3CCCCC3)n2)cc1F [Compound 114, (4-Chloro-6-cyclohexylmethoxy-[1,3,5]triazin-2-yl)-(3-fluoro-4-methoxy-phenyl)-amine]
- melting point: 98 °C

SMILES: COc1ccc(Nc2nc(NC3CCCCCC3)nc(Oc3ccccc3F)n2)cc1Cl [Compound E28, N^2-(3-chloro-4-methoxyphenyl)-N^4-cycloheptyl-6-(2-fluorophenoxy)-1,3,5-triazine-4,2-diamine]
- melting point: 98 to 100 °C

SMILES: CCN1CCCC1CNc1nc(Nc2ccc(OC)c(F)c2)nc(N2CCCC3CCCCC32)n1 (centres unmarked) [Compound 59, N^2-[(1-ethyl-2-pyrrolidinyl)methyl]-N^4-(3-fluoro-4-methoxyphenyl)-N^6-octahydro-1(2H)-quinolinyl-1,3,5-triazine-2,4-diamine]
- Toxicity (cells): toxic

SMILES: CCOC(=O)c1ccc(Nc2nc(NCC3CCCN3CC)nc(NC3CCCCCC3)n2)cc1 (centres unmarked) [Compound 14, Ethyl 4-[(4-(cycloheptylamino)-6-{[(1-ethyl-2-pyrrolidinyl)methyl]amino}-1,3,5-triazin-2-yl)-amino]benzoate]
- Toxicity (cells): toxic

SMILES: CCN1CCCC1CNc1nc(Nc2ccc(Cl)c(Cl)c2)nc(NC2CCCCCC2)n1 (centres unmarked) [Compound 7, N^2-cycloheptyl-N^4-(3,4-dichlorophenyl)-N^6-[(1-ethyl-2-pyrrolidinyl)methyl]-1,3,5-triazine-2,4,6-triamine]
- Toxicity (cells): toxic

SMILES: CCN1CCCC1CNc1nc(Nc2cnc3ccccc3c2)nc(NC2CCCCCC2)n1 (centres unmarked) [Compound 3, N^2-cycloheptyl-N^4-[(1-ethyl-2-pyrrolidinyl)methyl]-N^6-(3-quinolinyl)-1,3,5-triazine-2,4,6-triamine]
- activity at 10 µM (TNF-α induced IL-6; [1]): 0 to 25%
- Toxicity (cells): toxic

SMILES: CCN1CCCC1CNc1nc(Nc2cccc(F)c2)nc(NC2CCCCCC2)n1 (centres unmarked) [Compound 16, N^2-cycloheptyl-N^4-[(1-ethyl-2-pyrrolidinyl)methyl]-N^6-(3-fluorophenyl)-1,3,5-triazine-2,4,6-triamine]
- Toxicity (cells): toxic

SMILES: CCN1CCCC1CNc1nc(Nc2ccc(Br)cc2)nc(NC2CCCCCC2)n1 (centres unmarked) [Compound 13, N^2-(4-bromophenyl)-N^4-cycloheptyl-N^6-[(1-ethyl-2-pyrrolidinyl)methyl]-1,3,5-triazine-2,4,6-triamine]
- Toxicity (cells): toxic

SMILES: CCN1CCCC1CNc1nc(Nc2ccccc2Cl)nc(NC2CCCCCC2)n1 (centres unmarked) [Compound 21, N^2-(2-chlorophenyl)-N^4-cycloheptyl-N^6-[(1-ethyl-2-pyrrolidinyl)methyl]-1,3,5-triazine-2,4,6-triamine]
- Toxicity (cells): toxic

SMILES: CCN1CCCC1CNc1nc(Nc2ccc(Oc3ccccc3)cc2)nc(NC2CCCCCC2)n1 (centres unmarked) [Compound 36, N^2-cycloheptyl-N^4-[(1-ethyl-2-pyrrolidinyl)methyl]-N^6-(4-phenoxyphenyl)-1,3,5-triazine-2,4,6-triamine]
- Toxicity (cells): toxic

SMILES: CCN1CCCC1CNc1nc(Nc2ccc(OC(F)(F)F)cc2)nc(NC2CCCCCC2)n1 (centres unmarked) [Compound 9, N^2-cycloheptyl-N^4-[(1-ethyl-2-pyrrolidinyl)methyl]-N^6-[4-(trifluoromethoxy)phenyl]-1,3,5-triazine-2,4,6-triamine]
- Toxicity (cells): toxic

SMILES: CCCCN(CCC)c1nc(Nc2ccc(OC)c(Cl)c2)nc(N(C)C2CCN(C)CC2)n1 [Compound 111, N-Butyl-N′-(3-chloro-4-methoxy-phenyl)-N″-methyl-N″-(1-methyl-piperidin-4-yl)-N-propyl-[1,3,5]triazine-2,4,6-triamine]
- % IL6 production compare to TNF stimulation of IL6 (100%), @ 5 uM (TNF-α induced IL-6; HAEC, 5 uM compound, TNF stimulation = 100%): 46%
- activity at 10 µM (TNF-α induced IL-6; read-out: % IL6 production compare to TNF stimulation of IL6 (100%), Compds tested @ 10 uM HAEC, IL6): > 90%
- activity at 10 µM (TNF-α induced IL-6; read-out: Inhibition of TNF-induced IL6 production): 75 to 100%
- Toxicity (cells): Toxic by eye at 50and 10 uM noblunt/round justdeath

SMILES: CCN1CCCC1CNc1nc(Nc2ccc(OC)c(Cl)c2)nc(NC2CCCCCC2)n1 (centres unmarked) [Compound 136, N^2-(3-chloro-4-methoxy-phenyl)-N^4-cycloheptyl-N^6-(1-ethyl-pyrrolidin-2-ylmethyl)-1,3,5-triazine-2,4,6-triamine]
- Toxicity (cells): Nothing but celldebris at 3 uM verytoxic

SMILES: CCN1CCCC1CNc1nc(Nc2ccccc2Br)nc(NC2CCCCCC2)n1 (centres unmarked) [Compound 22, N^2-(2-bromophenyl)-N^4-cycloheptyl-N^6-[(1-ethyl-2-pyrrolidinyl)methyl]-1,3,5-triazine-2,4,6-triamine]
- Toxicity (cells): toxic

SMILES: CCN1CCCC1CNc1nc(Nc2cccc3cccnc23)nc(NC2CCCCCC2)n1 (centres unmarked) [Compound 5, N^2-cycloheptyl-N^4-[(1-ethyl-2-pyrrolidinyl)methyl]-N^6-(8-quinolinyl)-1,3,5-triazine-2,4,6-triamine]
- Toxicity (cells): toxic
